The text below walks through data of publication PMC6896485, “Aryl derivatives of 3H-1,2-benzoxathiepine 2,2-dioxide as carbonic anhydrase inhibitors” (Journal of Enzyme Inhibition and Medicinal Chemistry, 2019).

Test [1] deals with T1, hCA IX (Homo sapiens, UniProt Q16790).
T1 construct: gene CA9; recombinant, obtained in-house
In words: stopped-flow CO2 hydration. The test is classed as biochemical. The note with it: read-out: KI (nM) ^* / CA IX. The source says: stopped-flow CO2 hydration on hCA IX

Test [2] addresses T2, hCA XII (Homo sapiens, UniProt O43570).
T2 construct: gene CA12; recombinant, obtained in-house
In words: stopped-flow CO2 hydration. It counts as biochemical. The note with it: read-out: KI (nM) ^* / CA XII. The source says: (§1) stopped-flow CO2 hydration on hCA XII

Test [3] in a line: stopped-flow CO2 hydration. The test is classed as biochemical, Homo sapiens. The note with it: read-out: KI (nM) ^* / CA I.
Source text: as §1

Where [4] appears, read: CO2 […], Hepes pH […] Na2SO4, […] h preincubation at room temperature.

Where two headings read alike, the source gives them in different places. Where only a bound is given, the exact number is not on record here.

T2 sequence (O43570 25-354): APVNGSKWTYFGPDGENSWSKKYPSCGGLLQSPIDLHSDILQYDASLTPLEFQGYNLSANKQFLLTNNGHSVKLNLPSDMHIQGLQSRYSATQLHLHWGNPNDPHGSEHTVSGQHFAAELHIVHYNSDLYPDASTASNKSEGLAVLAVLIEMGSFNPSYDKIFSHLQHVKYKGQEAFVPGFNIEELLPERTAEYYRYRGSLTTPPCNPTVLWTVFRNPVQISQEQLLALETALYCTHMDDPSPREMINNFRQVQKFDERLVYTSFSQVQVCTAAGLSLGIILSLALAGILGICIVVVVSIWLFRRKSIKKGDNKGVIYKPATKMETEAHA

On to `COc1ccc(-c2ccc3c(c2)C=CCS(=O)(=O)O3)cc1` [compound 9, 7–(4-Methoxyphenyl)-3H-1,2-benzoxathiepine 2,2-dioxide], for which the values for the Ki in test [1] and in test [2] were 408 nM and 2930 nM, respectively.
In the case of `O=S1(=O)CC=Cc2cccc(-c3ccc(F)cc3)c2O1` [compound 32, 9–(4-Fluorophenyl)-3H-1,2-benzoxathiepine 2,2-dioxide], the Ki in test [1] is 33700 nM; in test [3] it was > 100000 nM.
`COc1ccc(-c2ccc3c(c2)OS(=O)(=O)CC=C3)cc1` [compound 22, 8–(4-Methoxyphenyl)-3H-1,2-benzoxathiepine 2,2-dioxide]: the Ki was found to be 63.1 nM in test [1] and 169 nM in test [2].
Take `O=S1(=O)CC=Cc2cc(-c3ccccc3)ccc2O1` [compound 8, 7-Phenyl-3H-1,2-benzoxathiepine 2,2-dioxide]: the Ki in test [1] came to 655 nM; in test [2] it was 1380 nM.
Regarding `COc1ccc(-c2cccc3c2OS(=O)(=O)CC=C3)cc1` [compound 31, 9–(4-Methoxyphenyl)-3H-1,2-benzoxathiepine 2,2-dioxide], the Ki is 60900 nM in test [1] and > 100000 nM in test [3].
The corresponding values for `O=S1(=O)CC=Cc2cccc(-c3ccc(C(F)(F)F)cc3)c2O1` [compound 33, 9–(4-(Trifluoromethyl)phenyl)-3H-1,2-benzoxathiepine 2,2-dioxide] are 47100 nM and > 100000 nM.
Consider `O=S1(=O)CC=Cc2ccc(-c3ccc(F)cc3)cc2O1` [compound 23, 8–(4-Fluorophenyl)-3H-1,2-benzoxathiepine 2,2-dioxide], for which the Ki was determined as 95.2 nM in test [1] and 77.9 nM in test [2] (setting [4]).
Consider `O=S1(=O)CC=Cc2cc(-c3ccc(F)cc3)ccc2O1` [compound 10, 7–(4-Fluorophenyl)-3H-1,2-benzoxathiepine 2,2-dioxide], for which the results for the Ki in test [1] and in test [2] were 331 nM and 890 nM, respectively.
As for `O=S1(=O)CC=Cc2cc(-c3ccc(C(F)(F)F)cc3)ccc2O1` [compound 11, 7–(4-(Trifluoromethyl)phenyl)-3H-1,2-benzoxathiepine 2,2-dioxide], the Ki worked out at 221 nM in test [1] and 4020 nM in test [2].
Consider `CCOC(=O)c1ccc(-c2cccc3c2OS(=O)(=O)CC=C3)cc1` [compound 34, 9–(4-(Ethoxycarbonyl)phenyl)-3H-1,2-benzoxathiepine 2,2-dioxide], for which the results for the Ki in test [1] and in test [3] were 16400 nM and > 100000 nM, respectively.
Take `O=S1(=O)CC=Cc2cccc(Br)c2O1` [compound 29, 9-Bromo-3H-1,2-benzoxathiepine 2,2-dioxide]: the Ki came out at 755 nM in test [1] and 3820 nM in test [2].
Regarding `O=S1(=O)CC=Cc2cccc(-c3ccccc3)c2O1` [compound 30, 9-Phenyl-3H-1,2-benzoxathiepine 2,2-dioxide], the figures for the Ki in test [1] and in test [3] were 21100 nM and > 100000 nM, respectively.
`CCOC(=O)c1ccc(-c2ccc3c(c2)OS(=O)(=O)CC=C3)cc1` [compound 25, 8–(4-(Ethoxycarbonyl)phenyl)-3H-1,2-benzoxathiepine 2,2-dioxide]: the Ki turned out to be 79.8 nM in test [1] and 289 nM in test [2].
With `O=S1(=O)CC=Cc2ccc(-c3ccc(C(F)(F)F)cc3)cc2O1` [compound 24, 8–(4-(Trifluoromethyl)phenyl)-3H-1,2-benzoxathiepine 2,2-dioxide], the Ki in test [1] (setting [4]) stood at 44 nM; in test [2], 248 nM.
Take `O=S1(=O)CC=Cc2cc(I)ccc2O1` [compound 7, 7-Iodo-3H-1,2-benzoxathiepine 2,2-dioxide]: the Ki in test [1] stood at 66.2 nM; in test [2], 455 nM.
In the case of `O=S1(=O)CC=Cc2ccc(-c3ccccc3)cc2O1` [compound 21, 8-Phenyl-3H-1,2-benzoxathiepine 2,2-dioxide], the Ki stood at 105 nM in test [1] and 473 nM in test [2].
For the compound `CCOC(=O)c1ccc(-c2ccc3c(c2)C=CCS(=O)(=O)O3)cc1` [compound 12, 7–(4-(Ethoxycarbonyl)phenyl)-3H-1,2-benzoxathiepine 2,2-dioxide], the values for the Ki in test [1] and in test [2] were 621 nM and 2400 nM, respectively.
The corresponding values for `O=S1(=O)CC=Cc2ccc(Br)cc2O1` [compound 20, 8-Bromo-3H-1,2-benzoxathiepine 2,2-dioxide] are 47.5 nM and 133 nM.
